# Results from a melting point compilation (Tetko et al.; mined from patent text by program, amines drawn as free bases though some values may be those of a salt).
row,SMILES,melting point
1,Cc1cccc(NC(=O)NC2CN(C(=O)C(C)(C)C)c3ccccc3N(CC(=O)OCc3ccccc3)C2=O)c1 (configuration not stated),136 to 140 °C
2,COc1cc2c(cc1S(=O)(=O)c1ccc(F)cc1)CCN(C)CC2,129 to 130 °C
3,Cc1cccc(Oc2cccc(C#CC(C)N(O)C(N)=O)c2)n1 (configuration not stated),133 to 135 °C
4,O=C(OC1c2ccccc2C(=O)N1c1ccc2ccc(Cl)nc2n1)N1CCN(C=S)CC1 (configuration not stated),295 °C
5,O=[N+]([O-])c1cc(C(F)(F)F)cc2c(Cl)ccnc12,100 to 107 °C
6,CCC(C)n1ncn(-c2ccc(N3CCN(c4ccc(OCC(O)(Cn5cncn5)c5ccc(Cl)cc5Cl)cc4)CC3)nc2)c1=O (configuration not stated),84 to 87 °C
7,CSc1ccc(-c2csc3ccc(C(=O)NN)cc23)cc1,195 to 196 °C
8,COc1cc(C=C2CCN(C(=O)NO)C2=O)cc(OC)c1O,203 to 204 °C
9,CC(C)C(CO)CS(N)(=O)=O (configuration not stated),83 to 84 °C
10,CCCCCCOc1cc(O)c(-c2nc(-c3ccc(C)cc3C)nc(-c3ccc(C)cc3C)n2)cc1C(C)(C)c1ccccc1,111 to 115 °C
11,COc1cc2c(cc1OC)CCC(N(Cc1ccccc1)C(=O)c1ccc(C)cc1)=C2,183 to 185 °C
12,Cc1nc(NC(=O)NC(=O)c2c(Cl)cccc2Cl)cnc1-c1ccc(Br)cc1,225 to 227 °C
13,O=C(O)COc1cccc(C(O)C(c2ccccc2)C2SCCCS2)c1 (configuration not stated),99 to 101 °C
14,COc1ccc(S(=O)(=O)N(CC(N)=O)c2ccc(N(C)C)cc2Cc2ccccc2Cl)cc1OC,130 °C
15,COC(=O)c1cccc(Nc2nc(-c3cccnc3)nc3ccccc23)c1,228 to 245 °C
16,OC(CN1CCC(C(O)c2ccccc2)CC1)c1ccc(F)cc1 (configuration not stated),114 to 116 °C
17,O=C(O)c1nn(Cc2ccc(Cl)cc2Cl)c2c1Cc1cc(Cl)ccc1-2,> 260 °C
18,CCC(=O)NN=C(c1ccc(Cl)cc1)c1ccc(OS(C)(=O)=O)cc1,128 to 144 °C
19,CN(C)c1ccc(NC(=O)N(C[C@@H]2CCC[C@H](CN(C(=O)Nc3ccc(N(C)C)cc3)C3CCCCCCC3)C2)C2CCCCCCC2)cc1,147 to 149 °C
20,COc1cc2c(cc1OC)C(C=Cc1ccc([N+](=O)[O-])cc1)=NN(C(C)=O)C(C)C2 (configuration not stated),182 to 184 °C
21,CCCN(CCC)S(=O)(=O)c1cc(-c2csc(=Nc3cccc(C)c3C)n2C)ccc1Cl,184 to 187 °C
22,CC(C)c1ccc(C2(O)C(=O)c3ccccc3C2=O)c(OC(=O)C=Cc2ccccc2)c1,95 to 97 °C
23,O=C(O)COC1(Cl)CC(c2ccccc2)=Nc2ccccc21 (configuration not stated),230 °C
24,COc1cc(Nc2c(C#N)cnc3cc(-c4ccc(CN5CCN(C)CC5)cc4)sc23)c(Cl)cc1Cl,226 to 228 °C
25,CCOC(=O)c1nc(CCS(=O)(=O)c2ccc(Cl)cc2)no1,115 to 119 °C

row,SMILES,melting point
1,COCCNC(=O)c1cc(-c2ccccc2)c(=O)n2ccc3ccsc3c12,201 to 202 °C
2,CCOC(=O)C1CSCCN1C(=O)Nc1ccc(Cl)cc1 (configuration not stated),152 to 154 °C
3,CCCc1nc2c(N)nc3ccccc3c2n1CCC(OCC)OCC,148 to 150 °C
4,O=C(Nc1ccccc1)c1ccc(F)c2c1CC(N(CCCc1c[nH]c3ccc(F)cc13)C1CCC1)CO2 (configuration not stated),136 °C
5,CCCCCCCCCCCCSC1C=NNC1=O (configuration not stated),88.5 to 90 °C
6,CCCCOC(=O)c1ccc(C(=O)NNC(=O)c2ccc(C(=O)OCCCC)cc2)cc1,166 to 168 °C
7,O=C1CC(C(F)(F)F)CC(=O)N1c1cc(OCSc2ccccc2)c(Cl)cc1F,108 to 110 °C
8,N#CC1CN1C(=O)NC(=O)CC1CCCCC1 (configuration not stated),142 to 144 °C
9,Cc1cc(C(=O)c2[nH]c3ccc(Cl)cc3c2CC(=O)O)no1,253 to 255 °C
10,CC(CC(=O)NC(=O)OC(C)(C)C)Nc1ccccc1 (configuration not stated),117 to 118 °C
11,COc1ccc2c(c1)CCC(=O)C2CC(=O)c1ccccc1 (configuration not stated),55 to 59 °C
12,CC(O)CNc1cc(Cl)cc(NCC(C)O)c1[N+](=O)[O-] (configuration not stated),170 °C
13,CCOc1cc2ncc(NCc3ccccc3)nc2cc1OCC,136 °C
14,CCC(=O)Cc1cc(OC2CCCC2)ccc1NC(=O)OC(C)(C)C,71 to 73 °C
15,CC1(C)CC(=O)c2cc(O)ccc2S1,135 to 142 °C
16,CCN(CC)c1cc(-c2ccccc2)nc2nn(-c3ccccc3)cc12,148 to 149 °C
17,O=C1Nc2ccc(Cl)cc2C1(O)c1ccccc1C(F)(F)F (configuration not stated),205 to 208 °C
18,C[Si](C)(C)NS(C)(=O)=O,69 to 74.5 °C
19,CCCN(CCc1ccccc1)CCc1cccc2[nH]c(=S)[nH]c12,198 to 201 °C
20,CCOC(=O)C(C)Oc1ccc(-c2nc(-c3ccc(OC(C)C(=O)OCC)cc3O)nc(-c3c(C)cc(C)cc3C)n2)c(O)c1 (configuration not stated),142 to 147 °C
21,COCCOCOc1c(Cl)cc(C=O)c(Cl)c1OCOCCOC,50 °C
22,Cc1oc(-c2ccccc2)nc1COc1ccc2cc(CC3SC(=O)NC3=O)oc2c1 (configuration not stated),179 to 180 °C
23,O=C(O)c1ncc(C(c2ccccc2)c2ccccc2)cc1C(c1ccccc1)c1ccccc1,172 to 175 °C
24,CC(=O)c1cc(Cl)cc(Oc2ncccc2C(=O)NCc2ccc(C(C)(C)O)cc2)c1,110 to 112 °C
25,O=C(O)c1c[nH]c2nc(Cl)ccc2c1=O,271 to 273 °C

row,SMILES,melting point
1,Nc1cc(-n2c(=O)oc3c(c2=O)CCC3)c(F)cc1Cl,93 °C
2,O=S(=O)(c1ccc(Cl)c2ccccc12)N1CC2CCC(CC2)C1,134 to 137 °C
3,Cc1ccc(C(=O)NC(NC(=S)Nc2cccnc2)c2ccccc2)cc1 (configuration not stated),156 to 158 °C
4,CC(C)c1nc(C(C)C)c(CN2CCC(N3CCCCC3)CC2)c(-c2ccc(F)cc2)c1CO,143 to 145 °C
5,CCC(C(O)c1ccc(Cl)cc1)n1ncn(-c2ccc(N3CCN(c4nc5ccccc5o4)CC3)cc2)c1=O (configuration not stated),221 °C
6,CCOC(=O)CC(=Nc1cc([N+](=O)[O-])ccc1Cl)OC,60 to 62 °C
7,O=C1Cc2cc(NC(=O)C(=O)N3CCC(Oc4ccc(F)cc4)CC3)ccc2N1,147 to 149 °C
8,COc1ccc2[nH]cc(C3=CCN(C[C@H](O)COc4cccc5[nH]ccc45)CC3)c2c1,105 to 110 °C
9,CCSC1=NCC(O)CN1 (configuration not stated),106 to 108 °C
10,O=Cc1c2ccccc2cc2sccc12,113 °C
11,Cc1cc(C)c2c(-c3ccc(C(C)C)cc3)csc2c1,83 to 84 °C
12,O=C(Nc1cc(-c2nc(-c3ccccc3)c[nH]2)ccn1)c1ccccc1,265 to 267 °C
13,COC(=O)C1=C(C)NC2=C(C(=O)NCC2)C1c1ccc(F)c(Br)c1 (configuration not stated),150 to 152 °C
14,Oc1ccc(C(c2ccc(O)cc2)c2cccc3ccccc23)cc1,109 to 111 °C
15,CCCCCCCCCCCCn1nnc(C(=O)O)n1,122 to 124 °C
16,CNC(=O)OCCOc1cc(-n2c(=O)cc(C(F)(F)F)n(C)c2=O)c(F)cc1Cl,173 to 175 °C
17,COc1cc(C=O)ccc1OCCCC(=O)O,143 to 148 °C
18,N=C(N)NCCCCC(=O)Nc1ccc(OCc2ccccc2)c(C(=O)NCCC(=O)O)c1,242 to 245 °C
19,CN(C)C=C(C(=O)c1ccccc1)c1ccccc1,128 to 133 °C
20,Cc1nc(C(F)(F)F)ccc1C(=O)C1=C(O)C2CCC(C2)C1=O (configuration not stated),75 to 77 °C
21,OC(c1ccccc1)c1ccccc1CNC(=S)NCCc1ccccc1 (configuration not stated),117 to 119 °C
22,CCc1ccc(Cc2c(O)nn(C(C)C)c2C)cc1,164 to 169 °C
23,CN1CC(CNC(=N)NC(=O)c2cncc(Br)c2)CC2c3cccc4c3c(cn4C)CC21 (configuration not stated),140 to 142 °C
24,Cn1ncc2[nH]c3ccc(Cc4ccccc4)cc3c(=O)c21,282 °C
25,COc1cc2[nH]c3ncnc(N4CCNCC4)c3c2cc1OC,185 °C

row,SMILES,melting point
1,O=S(=O)(NCCCCCCNc1nsc2nccn12)c1cccc2ccccc12,95 to 97 °C
2,CCC(CC)c1nn(-c2ccc(Cl)cn2)cc1CCCO,62 to 63 °C
3,O=C(O)C1=CS[C@@H]2/C(=C\c3cc4c(s3)CCN(Cc3ccccc3)C4)C(=O)N12,198 °C
4,O=C(Nc1ccc(-n2nc(C(F)(F)F)cc2C(F)(F)F)cc1)c1ccc(F)c(F)c1F,122 to 124 °C
5,Cc1cc(NC(=O)c2cnccn2)nc(C)c1[N+](=O)[O-],158 °C
6,OC12N=C(c3ccccc3)SC1Cc1cc(Cl)ccc12 (configuration not stated),155 °C
7,O=C1C(c2c[nH]c3ccccc23)C(c2c[nH]c3ccccc23)C(=O)N1Cc1ccccc1 (configuration not stated),112 to 115 °C
8,CCCc1c(C(=O)C(C)C)c2ccc(C(=O)OC)cc2n1Cc1ccccc1OC,103 to 105 °C
9,O=C(CC1CSCCC1=O)c1ccc(Cl)cc1 (configuration not stated),78 to 81 °C
10,CCN(Cc1cc(-c2ncco2)ccc1-c1ccccc1S(=O)(=O)Nc1onc(C)c1C)CC(F)(F)F,55 to 65 °C
11,CC(C)(C)OC(=O)N1C(=O)O[C@@H](c2ccc(F)cc2)[C@H]1Cc1ccc(C(F)(F)F)cc1 (racemic),155 to 156 °C
12,COC(=O)c1cc2ccc(C)cc2n1C(C)=O,51 to 53 °C
13,COC(=O)c1ccc(C(=O)Nc2c(C)c(C)c3c(c2C)C(c2ccc(C(C)C)cc2)C(C)(C)O3)cc1 (configuration not stated),220 to 223 °C
14,COc1ccc2cc(-n3cnnc3)cc(C)c2n1,157 to 159 °C
15,CCCCCCCCc1ccc(OCC(O)Cn2cccn2)cc1 (configuration not stated),88 °C
16,COc1ccc(C(=O)C=Cc2ccccc2F)cc1,92 to 93 °C
17,O=S(=O)(CC(O)(CBr)c1ccccc1)c1ccccc1 (configuration not stated),91 °C
18,COc1cc(OC)c(-c2cc3ccccc3[nH]2)cc1C=CC(=O)c1ccc(S(=O)(=O)NCCCn2ccnc2)cc1,197 to 200 °C
19,O=C(O)Cc1ccc2c(c1)CC(CCNS(=O)(=O)c1ccccc1)C2 (configuration not stated),102 to 103 °C
20,COc1ccc(Br)c2c1C1C(=O)N(C)C(=O)C1CC2 (configuration not stated),201 to 202 °C
21,O=S(=O)(c1cccc(-c2cccc(-c3nc(-c4ccc(C(F)(F)F)cc4)cc(C(F)(F)F)n3)c2)c1)N(CCO)CCO,112 °C
22,COc1ccc(C(=O)n2c3c(c4ccccc42)CC(C(=O)O)CC3)cc1 (configuration not stated),195 °C
